Data taken from ChEMBL document CHEMBL1201862, “PubChem BioAssay data set” (2004).
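Cultured in 96-well plates, cells were exposed to test compound for 48 hours across five concentrations. GI50: concentration for 50% inhibition of growth.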 Active and inactive are the calls of the source. Cut-off read from the data, not from the text of the source: active = GI50 up to about 1.1 µM and inactive = higher.

Legend:
Assay in all cases: NCI-60 cell line screen, 48 h
UO-31 = tested on: UO-31
A549 = tested on: A549
SF-268 = tested on: SF-268
OVCAR-4 = tested on: OVCAR-4
MCF7 = tested on: MCF7
HCT-116 = tested on: HCT-116
HCT-15 = tested on: HCT-15
SK-MEL-28 = tested on: SK-MEL-28
ACHN = tested on: ACHN
SNB-19 = tested on: SNB-19
BT-549 = tested on: BT-549
K562 = tested on: K562
EKVX = tested on: EKVX
SF-295 = tested on: SF-295
U-251 = tested on: U-251
Hs-578T = tested on: Hs-578T
KM12 = tested on: KM12
Malme-3M = tested on: Malme-3M
CAKI-1 = tested on: CAKI-1
HL-60 = tested on: HL-60

COc1ccc2c(c1)CCc1c-2[nH]c2ccc(OC)cc12
GI50 (UO-31): > 100 µM (inactive)
GI50 (A549): > 100 µM (inactive)
GI50 (SF-268): > 100 µM (inactive)
GI50 (OVCAR-4): > 100 µM (inactive)
GI50 (MCF7): > 100 µM (inactive)
GI50 (HCT-116): > 100 µM (inactive)
GI50 (HCT-15): > 100 µM
GI50 (SK-MEL-28): > 100 µM (inactive)
GI50 (ACHN): > 100 µM (inactive)
GI50 (SNB-19): > 100 µM (inactive)
GI50 (BT-549): > 100 µM (inactive)
GI50 (K562): > 100 µM (inactive)
GI50 (EKVX): > 100 µM (inactive)
GI50 (SF-295): > 100 µM (inactive)
GI50 (U-251): > 100 µM (inactive)
GI50 (Hs-578T): > 100 µM (inactive)
GI50 (KM12): > 100 µM (inactive)
GI50 (Malme-3M): 45.8 µM (inactive)
GI50 (CAKI-1): > 100 µM (inactive)

CC(=O)/C(=C\NC(=S)Nc1ccc(S(N)(=O)=O)cc1)C(=O)Nc1ccccc1C
GI50 (UO-31): 32.4 µM (inactive)
GI50 (A549): 60.4 µM (inactive)
GI50 (SF-268): 99.8 µM (inactive)
GI50 (OVCAR-4): 36.9 µM (inactive)
GI50 (MCF7): 40.7 µM (inactive)
GI50 (HCT-116): 40.5 µM (inactive)
GI50 (HCT-15): 41.3 µM
GI50 (HL-60): 16.1 µM (inactive)
GI50 (ACHN): 52.5 µM (inactive)
GI50 (SNB-19): 84.3 µM (inactive)
GI50 (BT-549): 33.9 µM (inactive)
GI50 (K562): 32.4 µM (inactive)
GI50 (EKVX): 66.5 µM (inactive)
GI50 (SF-295): 36 µM (inactive)
GI50 (U-251): 45 µM (inactive)
GI50 (Hs-578T): 61.8 µM (inactive)
GI50 (KM12): 43.3 µM (inactive)
GI50 (CAKI-1): 37.8 µM (inactive)

CC1SC2(CCCCC2)N(NC(=O)CSc2nc3ccc(Cl)cc3c(=O)n2-c2ccccc2)C1=O (stereo unspecified)
GI50 (UO-31): 21.1 µM (inactive)
GI50 (A549): 28.8 µM (inactive)
GI50 (SF-268): 25.8 µM (inactive)
GI50 (OVCAR-4): 30.4 µM (inactive)
GI50 (MCF7): 15.3 µM (inactive)
GI50 (HCT-116): 14 µM (inactive)
GI50 (HCT-15): 18.7 µM
GI50 (SK-MEL-28): 32.6 µM (inactive)
GI50 (HL-60): 23.6 µM (inactive)
GI50 (ACHN): 29.6 µM (inactive)
GI50 (SNB-19): 24.1 µM (inactive)
GI50 (BT-549): 20.2 µM (inactive)
GI50 (K562): 19.5 µM (inactive)
GI50 (EKVX): 42.5 µM (inactive)
GI50 (SF-295): 18.5 µM (inactive)
GI50 (U-251): 17.5 µM (inactive)
GI50 (KM12): 30.1 µM (inactive)
GI50 (Malme-3M): 30.8 µM (inactive)
GI50 (CAKI-1): 37.1 µM (inactive)

COc1cc(/C=C2\C(=O)N(c3cccc([N+](=O)[O-])c3)C(c3ccccc3)S2(=O)=O)cc(OC)c1OC (stereo unspecified)
GI50 (UO-31): > 100 µM (inactive)
GI50 (A549): > 100 µM (inactive)
GI50 (OVCAR-4): 80 µM (inactive)
GI50 (MCF7): 39.7 µM (inactive)
GI50 (HCT-116): > 100 µM (inactive)
GI50 (HCT-15): > 100 µM
GI50 (SK-MEL-28): > 100 µM (inactive)
GI50 (HL-60): 84.7 µM (inactive)
GI50 (ACHN): > 100 µM (inactive)
GI50 (SNB-19): > 100 µM (inactive)
GI50 (BT-549): > 100 µM (inactive)
GI50 (K562): 49.4 µM (inactive)
GI50 (EKVX): > 100 µM (inactive)
GI50 (SF-295): 97.5 µM (inactive)
GI50 (U-251): > 100 µM (inactive)
GI50 (KM12): 92.7 µM (inactive)
GI50 (Malme-3M): > 100 µM (inactive)
GI50 (CAKI-1): > 100 µM (inactive)

O=C(NCCc1ccccc1)[C@H]1CCCC[C@@H]1CCO
GI50 (UO-31): > 100 µM (inactive)
GI50 (A549): > 100 µM (inactive)
GI50 (SF-268): > 100 µM (inactive)
GI50 (OVCAR-4): > 100 µM (inactive)
GI50 (MCF7): > 100 µM (inactive)
GI50 (HCT-116): > 100 µM (inactive)
GI50 (HCT-15): > 100 µM
GI50 (SK-MEL-28): > 100 µM (inactive)
GI50 (HL-60): > 100 µM (inactive)
GI50 (ACHN): > 100 µM (inactive)
GI50 (BT-549): > 100 µM (inactive)
GI50 (K562): > 100 µM (inactive)
GI50 (EKVX): > 100 µM (inactive)
GI50 (SF-295): > 100 µM (inactive)
GI50 (U-251): > 100 µM (inactive)
GI50 (Hs-578T): > 100 µM (inactive)
GI50 (KM12): > 100 µM (inactive)
GI50 (CAKI-1): > 100 µM (inactive)

CCOC(=O)c1nc2ccc(C(F)(F)F)cc2nc1Oc1ccc(C(=O)OC)cc1
GI50 (UO-31): > 100 µM (inactive)
GI50 (SF-268): 76.4 µM (inactive)
GI50 (OVCAR-4): 98.4 µM (inactive)
GI50 (MCF7): 43.1 µM (inactive)
GI50 (HCT-116): > 100 µM (inactive)
GI50 (HCT-15): > 100 µM
GI50 (SK-MEL-28): 86.1 µM (inactive)
GI50 (HL-60): > 100 µM (inactive)
GI50 (ACHN): > 100 µM (inactive)
GI50 (SNB-19): 46.8 µM (inactive)
GI50 (BT-549): 39.1 µM (inactive)
GI50 (K562): > 100 µM (inactive)
GI50 (EKVX): > 100 µM (inactive)
GI50 (SF-295): 54.8 µM (inactive)
GI50 (U-251): 36.1 µM (inactive)
GI50 (Hs-578T): 33.2 µM (inactive)
GI50 (KM12): 56.4 µM (inactive)
GI50 (CAKI-1): > 100 µM (inactive)

O=C(NN=C(c1ccccc1)c1ccccc1)/C(O)=C/C(=O)c1ccc(Cl)cc1
GI50 (UO-31): 29.8 µM (inactive)
GI50 (A549): 27.7 µM (inactive)
GI50 (SF-268): 36.9 µM (inactive)
GI50 (OVCAR-4): 45.4 µM (inactive)
GI50 (MCF7): 28 µM (inactive)
GI50 (HCT-116): 31.5 µM (inactive)
GI50 (HCT-15): 24.7 µM
GI50 (ACHN): 37.4 µM (inactive)
GI50 (SNB-19): 38.3 µM (inactive)
GI50 (BT-549): 38.1 µM (inactive)
GI50 (K562): 43.5 µM (inactive)
GI50 (EKVX): 30.7 µM (inactive)
GI50 (SF-295): 34.7 µM (inactive)
GI50 (U-251): 39.1 µM (inactive)
GI50 (Hs-578T): 27.2 µM (inactive)
GI50 (KM12): 45 µM (inactive)
GI50 (Malme-3M): 20.7 µM (inactive)
GI50 (CAKI-1): > 100 µM (inactive)

CC1(CCC2C=CCC2)CCCNC1=S (stereo unspecified)
GI50 (UO-31): > 10 µM (inactive)
GI50 (A549): > 10 µM (inactive)
GI50 (SF-268): > 10 µM (inactive)
GI50 (MCF7): > 10 µM (inactive)
GI50 (HCT-116): > 10 µM (inactive)
GI50 (HCT-15): > 10 µM
GI50 (SK-MEL-28): > 10 µM (inactive)
GI50 (HL-60): > 10 µM (inactive)
GI50 (ACHN): > 10 µM (inactive)
GI50 (SNB-19): > 10 µM (inactive)
GI50 (BT-549): > 10 µM (inactive)
GI50 (K562): > 10 µM (inactive)
GI50 (EKVX): > 10 µM (inactive)
GI50 (SF-295): > 10 µM (inactive)
GI50 (U-251): > 10 µM (inactive)
GI50 (Hs-578T): > 10 µM (inactive)
GI50 (KM12): > 10 µM (inactive)
GI50 (Malme-3M): > 10 µM (inactive)
